Patent US9161935B2 (TEVA PHARMACEUTICAL INDUSTRIES, LTD., priority 2012, dated 2015)

Legend:
[1] = test system: Subjects with moderate to severe Crohn's disease (CD); assay: Phase IIb trial LAQ-CD-202 (Example 3); format: in vivo, human
Procedure: Capsules should be swallowed with a glass of water.
On Days 1 and 2, this dose is administered twice daily (BID) as a loading dose (total daily dose 0.5 mg). Dosing is once daily (QD) from Day 3 onwards.
On Days 1 and 2, this dose is administered BID as a loading dose (total daily dose 1 mg). Dosing is QD from Day 3 onwards.
Subjects with moderate to severe Crohn's disease (CD), as determined by a Crohn's Disease Activity Index (CDAI) score of 220-450 (inclusive).
Remission: subjects with CDAI <150 subjects not designated a Treatment Failure (TF).
Response 100: reduction of CDAI by at least 100 points compared to Baseline in subjects not designated a Treatment Failure (TF). Any subject with Remission is also considered to have achieved Response 100.
Response 70: reduction of CDAI by at least 70 points compared to Baseline, in subjects not designated a TF.
(§1) IBDQ Response: An increase from baseline in total IBDQ score of ≧16 points.
(§2) IBDQ Remission: A total IBDQ score of >170 points.
Treatment duration is 8 weeks. Scheduled in-clinic visits are conducted at Screening, Baseline (Week 0), and at Weeks 1, 2, 4, 6, and 8. Unscheduled visits for safety or for any other reason may be conducted at any time during the study
A loading dose regimen of the study drug is given during the first 2 days of treatment (Day 1 [Baseline] and Day 2). The first loading dose of the study drug is administered at the site. The loading dose doubles the intended dose for the first 2 days and is administered BID with 12-hour intervals between dosing. Thereafter, starting on Day 3, the dosing regimen consists of the intended dose QD.
During the study period the CDAI score is assessed in addition to routine safety. Subjects are required to maintain CDAI diaries for each day of the Screening period and, if randomized, on each day of the treatment period. The scores obtained from the 7 consecutive diaries completed prior to the Baseline visit and to each of Weeks 1, 2, 4, 6, and 8 contribute to a total CDAI score at each of these time points.
The primary efficacy endpoint is the proportion of subjects achieving Remission (CDAI <150) at Week 8 with subjects not designated a Treatment Failure (TF).
Secondary Efficacy Endpoints: • Proportion of subjects achieving Response 70 at Week 8. • Proportion of subjects achieving Response 100 at Week 8. • Mean change in total IBDQ score from Baseline to Week 8. • Proportion of subjects with an IBDQ Response at Week 8. • Proportion of subjects with IBDQ Remission at Week 8.

[2] = test system: Moderate to Severe Crohn's Disease Patients; assay: Phase III 52-week maintenance of remission study LAQ-CD-303 (Example 4); format: in vivo, human
Procedure: A phase III, randomized, double-blind, placebo-controlled 52-week maintenance of remission study is conducted in active moderate to severe Crohn's disease patients.
Subjects with a Response during the 8-week induction studies LAQ-CD-202, LAQ-CD-301, or LAQ-CD-302 are re-randomized into this placebo-controlled maintenance study. Response in those induction studies was defined as a Crohn's Disease Activity Index (CDAI) reduction of at least 70 points from Baseline and CDAI <220 at Week 8 of the induction study in the absence of treatment failure (TF); in particular, this included subjects in Remission. In those 3 induction studies, TF was defined as follows: any new medication/treatment (including surgery) for Crohn's disease (CD) or dose increase not allowed by the protocol, throughout the study period; any early termination from the study was also regarded as TF. No de novo subjects are included in this study.
Remission: Subjects with CDAI <150 with no Treatment Failure (TF) during the course of the study.
Steroid Free Remission: Subjects achieving both Remission and steroid free.
as §1, §2
Treatment duration is 52 weeks. Scheduled in-clinic visits are conducted at Baseline (Week 0), and at Weeks 2, 4, 8, 12, 16, 20, 28, 36, 44, and 52. The Week 0 visit for this maintenance study is the same as the Week 8 visit in the induction study. Unscheduled visits for safety or for any other reason may be conducted at any time during the study.
Primary Efficacy Endpoint: • The primary endpoint is evaluated for subjects who belong to the PEC. • The proportion of subjects in Remission at Week 52.
Secondary Efficacy Endpoints: • The secondary endpoints are evaluated for subjects who belong to the PEC. • The proportion of subjects in Sustained Remission (defined as Remission at Week 36 and Week 52). • The proportion of subjects with Steroid-free Remission at Week 52. • Mean change in total IBDQ score from Baseline to Week 52. • Proportion of subjects with an IBDQ Response at Week 52. • Proportion of subjects with IBDQ Remission at Week 52.

CCN(C(=O)c1c(O)c2c(Cl)cccc2n(C)c1=O)c1ccccc1 [laquinimod]
effective: improve IBDQ score from Baseline by Week 8 ([1]; 0.25 mg/day) | induce IBDQ Response and/or IBDQ Remission by Week 8 ([1]; 0.25 mg/day) | induce Remission (CDAI <150) by Week 8 ([1]; 0.25 mg/day) | induce Response 70 and/or Response 100 by Week 8 ([1]; 0.25 mg/day) | improve IBDQ score from Baseline by Week 8 ([1]; 0.5 mg/day) | induce IBDQ Response and/or IBDQ Remission by Week 8 ([1]; 0.5 mg/day) | induce Remission (CDAI <150) by Week 8 ([1]; 0.5 mg/day) | induce Response 70 and/or Response 100 by Week 8 ([1]; 0.5 mg/day) | improve and/or maintain IBDQ score by Week 52 ([2]; 0.25 mg/day) | induce and/or maintain IBDQ Remission by Week 52 ([2]; 0.25 mg/day) | induce and/or maintain IBDQ Response by Week 52 ([2]; 0.25 mg/day) | induce and/or maintain Remission by Week 52 ([2]; 0.25 mg/day) | induce and/or maintain steroid-free Remission by Week 52 ([2]; 0.25 mg/day) | sustain Remission (Remission at Week 36 and Week 52) ([2]; 0.25 mg/day) | improve and/or maintain IBDQ score by Week 52 ([2]; 0.5 mg/day) | induce and/or maintain IBDQ Remission by Week 52 ([2]; 0.5 mg/day) | induce and/or maintain IBDQ Response by Week 52 ([2]; 0.5 mg/day) | induce and/or maintain Remission by Week 52 ([2]; 0.5 mg/day) | induce and/or maintain steroid-free Remission by Week 52 ([2]; 0.5 mg/day) | sustain Remission (Remission at Week 36 and Week 52) ([2]; 0.5 mg/day)
